Drawing on PubChem BioAssay (NCI), this text covers GI50 and TGI for eight compounds.

Among the test systems are MDA-MB-435; HS 578T breast; SW-620 colon; HOP-62 NSCLC; SF-295 CNS; HOP-92 NSCLC; HCT-116 colon; U251 CNS; SF-539 CNS; NCI-H226 lung.
What all share (assay): growth of human tumour cells (NCI), 48 h

Each structure is given as a SMILES string. Values joined by “and” are separate entries in the source; they are usually repeats but may differ in a detail not shown here. Equal entries are not always repeated.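 Compound exposure: 48 hours, 5 concentrations, 96-well plates. At the GI50, growth is halved. Definition used: TGI = concentration required for complete inhibition of growth.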

As to `O=C1/C(=C/c2cccc(Br)c2)COc2ccc(O)cc21`, the GI50 was 2.13 µM in the test on MDA-MB-435; 3.47 µM with HS 578T breast; 0.683 µM in the test with SW-620 colon; 11.7 µM in the test with HOP-62 NSCLC; 10.4 µM in the test on SF-295 CNS; 2.65 µM with HOP-92 NSCLC. For the same compound, the GI50 in the test with HCT-116 colon was 1.45 µM; in the test with U251 CNS, 1.49 µM; with SF-539 CNS, 1.89 µM; with NCI-H226 lung, 4.92 µM. Also, the TGI in the test on MDA-MB-435 worked out at 5.35 µM; in the test on HS 578T breast, 26.2 µM; with SW-620 colon, 2.49 µM; in the test with HOP-62 NSCLC, 24.3 µM; with SF-295 CNS, 23.6 µM; in the test with HOP-92 NSCLC, 13.6 µM. The TGI was determined as 2.99 µM in the test with HCT-116 colon, 3 µM in the test with U251 CNS, 4.58 µM in the test on SF-539 CNS and 26 µM with NCI-H226 lung.
On to `CCOC(=O)Nc1nc2ccc(OC)cc2s1`, for which the GI50 with MDA-MB-435 was 4.18 µM; in the test on HS 578T breast it was above 100 µM; in the test with SW-620 colon it was above 100 µM; with HOP-62 NSCLC it was above 100 µM; in the test with SF-295 CNS, above 100 µM; in the test with HOP-92 NSCLC it was above 100 µM. Further, the GI50 in the test with HCT-116 colon, with U251 CNS, in the test with SF-539 CNS and in the test with NCI-H226 lung was above 100 µM throughout. Further, the TGI with MDA-MB-435, in the test on HS 578T breast, with SW-620 colon, with HOP-62 NSCLC, with SF-295 CNS and in the test on HOP-92 NSCLC was above 100 µM in each case. Moreover, the TGI in the test with HCT-116 colon, with U251 CNS, with SF-539 CNS and in the test with NCI-H226 lung was above 100 µM throughout.
With `FC(F)(c1ccc2ncccc2c1)c1nnc2ccc(-c3ccncc3)nn12`, the GI50 in the test on MDA-MB-435 is above 100 µM; with HS 578T breast, 22.3 µM; in the test with SW-620 colon it was above 100 µM; in the test on HOP-62 NSCLC it was 62.7 µM; in the test with SF-295 CNS, 2.21 µM; with HOP-92 NSCLC, 18.3 µM. Also, the GI50 is 95.8 µM in the test with HCT-116 colon, 95.2 µM in the test on U251 CNS, 46.4 µM in the test on SF-539 CNS and 45.9 µM in the test with NCI-H226 lung. Moreover, the TGI in the test with MDA-MB-435, with HS 578T breast, with SW-620 colon, in the test with HOP-62 NSCLC, with SF-295 CNS and in the test on HOP-92 NSCLC was above 100 µM throughout. Also, the TGI with HCT-116 colon, with U251 CNS, in the test with SF-539 CNS and in the test on NCI-H226 lung was above 100 µM in each case.
`Cc1[nH]nc(C(F)(F)F)c1N=NN(C)C`: the TGI in the test on MDA-MB-435 was 32.7 µM; with HS 578T breast it was 44.6 µM; in the test on SW-620 colon, above 100 µM; in the test on HOP-62 NSCLC it was 27 µM; with SF-295 CNS it was 25.7 µM; in the test with HOP-92 NSCLC, 23.5 µM. For the same compound, the TGI in the test on HCT-116 colon came out at 4.99 µM; in the test on U251 CNS, 36.5 µM; in the test with SF-539 CNS, 20.7 µM; with NCI-H226 lung, 6.36 µM.
On to `OCc1ccc(N2CCc3cccc(F)c3C2)cc1Cl`, for which the GI50 in the test with MDA-MB-435 was 19.5 µM; in the test with HS 578T breast, 21.9 µM; in the test with SW-620 colon it was below 0.0209 µM; in the test on HOP-62 NSCLC, 0.0275 µM; in the test on SF-295 CNS, 0.246 µM; in the test on HOP-92 NSCLC, 0.0873 µM. Besides, the GI50 with HCT-116 colon is below 0.0104 µM; in the test on U251 CNS, below 0.0297 µM; with SF-539 CNS, 27.8 µM; in the test with NCI-H226 lung it was 0.0191 µM. The TGI was 51.8 µM with MDA-MB-435; 77.8 µM in the test on HS 578T breast; above 79.7 µM in the test with SW-620 colon; 27.2 µM in the test with HOP-62 NSCLC; 18.1 µM in the test with SF-295 CNS; 14.2 µM in the test on HOP-92 NSCLC. Moreover, the TGI in the test with HCT-116 colon is 14.6 µM; in the test with U251 CNS it was 36.3 µM; with SF-539 CNS, above 87.7 µM; in the test on NCI-H226 lung it was 0.0936 µM.
For `CN(CCCCCl)P(=O)(OCCS(=O)(=O)CC(NC(=O)CCC(N)C(=O)O)C(=O)NC(C(=O)O)c1ccccc1)OCC1OC(n2ccc(N)nc2=O)C(F)(F)C1O` (stereo not given), the GI50 with MDA-MB-435 was 0.178 µM; in the test on HS 578T breast, above 60.4 µM; in the test on SW-620 colon, 1.44 µM; with HOP-62 NSCLC, 0.0861 µM; in the test on SF-295 CNS it was 0.334 µM; in the test with HOP-92 NSCLC, 0.379 µM. For the same compound, the GI50 is 0.0378 µM in the test on HCT-116 colon, 0.23 µM in the test on U251 CNS, 0.0338 µM in the test with SF-539 CNS and 8.03 µM with NCI-H226 lung. For the same compound, the TGI with MDA-MB-435 is above 100 µM; with HS 578T breast, above 100 µM; in the test on SW-620 colon, above 100 µM; in the test on HOP-62 NSCLC it was above 85.9 µM; with SF-295 CNS, 2.71 µM; in the test on HOP-92 NSCLC, 8.63 µM. The TGI with HCT-116 colon was above 100 µM; in the test on U251 CNS it was above 100 µM; in the test with SF-539 CNS, 0.689 µM; with NCI-H226 lung, above 93.3 µM.
As for `C[C@@H]1C[C@H](C)CN(S(=O)(=O)c2ccc3c(NO)c4ccc(S(=O)(=O)N5C[C@H](C)C[C@H](C)C5)cc4c(N=O)c3c2)C1`, the GI50 with MDA-MB-435 was 0.181 µM; in the test with HS 578T breast, 0.161 µM; with SW-620 colon it was 0.0298 µM; in the test on HOP-62 NSCLC, 0.171 µM; with SF-295 CNS, 0.178 µM; with HOP-92 NSCLC, 0.167 µM. Further, the GI50 in the test with HCT-116 colon is 0.032 µM; in the test on U251 CNS, 0.129 µM; with SF-539 CNS it was 0.0564 µM; with NCI-H226 lung, 0.157 µM. The TGI with MDA-MB-435 was determined as 0.397 µM; in the test with HS 578T breast it was 0.422 µM; in the test with SW-620 colon, 0.104 µM; in the test on HOP-62 NSCLC, 0.324 µM; in the test on SF-295 CNS it was 0.338 µM; in the test on HOP-92 NSCLC, 0.522 µM. The TGI in the test on HCT-116 colon was 0.115 µM; in the test with U251 CNS it was 0.266 µM; with SF-539 CNS, 0.207 µM; in the test on NCI-H226 lung, 0.364 µM.
On to `CC(C)c1cnn2c(NCc3ccccc3)cc(NC[C@H]3CCNC[C@@H]3O)nc12`, for which the GI50 in the test with MDA-MB-435 is 0.343 µM and 0.578 µM; with HS 578T breast it was 0.839 µM and 1.38 µM; in the test with SW-620 colon it was 0.239 µM and 0.432 µM; with HOP-62 NSCLC, 0.225 µM and 0.348 µM; in the test on SF-295 CNS it was 1.15 µM and 0.508 µM; in the test on HOP-92 NSCLC it was 0.242 µM and 1.31 µM. Besides, the GI50 was 0.168 µM and 0.158 µM with HCT-116 colon; 0.378 µM and 0.382 µM in the test with U251 CNS; 0.292 µM and 0.436 µM with SF-539 CNS; 0.766 µM and 0.725 µM with NCI-H226 lung. Moreover, the TGI in the test on MDA-MB-435 was 1.74 µM and 2.07 µM; with HS 578T breast, 4.63 µM and 5.41 µM; in the test with SW-620 colon, 10.4 µM and 11 µM; with HOP-62 NSCLC, 1.33 µM and 3.13 µM; in the test with SF-295 CNS, 11.1 µM and 9.32 µM; in the test with HOP-92 NSCLC, 4.22 µM and 5.54 µM. Moreover, the TGI in the test on HCT-116 colon was 10.9 µM and 10.8 µM; in the test with U251 CNS, 10.7 µM and 10.4 µM; with SF-539 CNS it was 1.68 µM and 1.43 µM; in the test on NCI-H226 lung, 4.01 µM and 5.53 µM.
